The test has as its target T1, recombinant C. elegans kinesin-II (heterotrimeric kinesin-2) (Caenorhabditis elegans, UniProt Q19633+Q965T6).
T1 sequence (Q19633 1-782): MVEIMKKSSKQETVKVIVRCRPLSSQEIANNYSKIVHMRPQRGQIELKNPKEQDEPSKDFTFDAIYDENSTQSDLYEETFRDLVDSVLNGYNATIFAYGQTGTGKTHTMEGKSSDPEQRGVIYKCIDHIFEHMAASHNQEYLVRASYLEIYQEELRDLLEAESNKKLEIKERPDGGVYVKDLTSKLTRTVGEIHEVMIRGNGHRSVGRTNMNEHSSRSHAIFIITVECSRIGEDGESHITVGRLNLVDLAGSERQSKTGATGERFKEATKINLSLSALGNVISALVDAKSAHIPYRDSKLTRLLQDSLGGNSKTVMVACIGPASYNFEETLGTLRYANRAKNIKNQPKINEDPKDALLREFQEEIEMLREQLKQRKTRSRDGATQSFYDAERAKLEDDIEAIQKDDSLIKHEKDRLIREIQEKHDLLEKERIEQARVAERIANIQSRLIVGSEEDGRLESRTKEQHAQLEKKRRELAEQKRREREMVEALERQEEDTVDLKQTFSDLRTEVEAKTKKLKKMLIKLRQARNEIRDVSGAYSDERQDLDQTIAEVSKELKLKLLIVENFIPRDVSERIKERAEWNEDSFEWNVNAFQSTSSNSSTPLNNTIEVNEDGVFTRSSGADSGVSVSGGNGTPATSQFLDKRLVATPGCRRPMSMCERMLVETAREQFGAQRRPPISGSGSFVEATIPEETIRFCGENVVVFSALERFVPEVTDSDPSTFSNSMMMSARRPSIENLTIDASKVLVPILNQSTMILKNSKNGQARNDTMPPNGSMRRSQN
T1 sequence (Q965T6 1-646): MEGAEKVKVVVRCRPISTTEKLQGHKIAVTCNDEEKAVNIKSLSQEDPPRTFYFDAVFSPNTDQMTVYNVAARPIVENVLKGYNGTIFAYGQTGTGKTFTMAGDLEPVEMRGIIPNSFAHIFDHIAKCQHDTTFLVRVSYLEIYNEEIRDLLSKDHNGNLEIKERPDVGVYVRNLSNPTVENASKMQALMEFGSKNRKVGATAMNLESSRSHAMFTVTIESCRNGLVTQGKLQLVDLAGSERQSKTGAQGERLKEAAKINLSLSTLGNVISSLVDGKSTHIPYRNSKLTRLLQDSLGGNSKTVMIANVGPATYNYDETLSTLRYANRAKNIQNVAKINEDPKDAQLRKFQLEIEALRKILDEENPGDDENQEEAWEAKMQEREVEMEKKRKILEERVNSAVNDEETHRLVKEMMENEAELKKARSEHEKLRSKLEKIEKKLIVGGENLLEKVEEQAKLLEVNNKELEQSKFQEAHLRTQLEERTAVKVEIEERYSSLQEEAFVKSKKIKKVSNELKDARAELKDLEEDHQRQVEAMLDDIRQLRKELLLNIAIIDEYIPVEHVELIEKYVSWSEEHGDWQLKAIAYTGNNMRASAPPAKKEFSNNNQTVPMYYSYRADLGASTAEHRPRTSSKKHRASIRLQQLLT
T1 sequence (G5EEE6 1-713 partner): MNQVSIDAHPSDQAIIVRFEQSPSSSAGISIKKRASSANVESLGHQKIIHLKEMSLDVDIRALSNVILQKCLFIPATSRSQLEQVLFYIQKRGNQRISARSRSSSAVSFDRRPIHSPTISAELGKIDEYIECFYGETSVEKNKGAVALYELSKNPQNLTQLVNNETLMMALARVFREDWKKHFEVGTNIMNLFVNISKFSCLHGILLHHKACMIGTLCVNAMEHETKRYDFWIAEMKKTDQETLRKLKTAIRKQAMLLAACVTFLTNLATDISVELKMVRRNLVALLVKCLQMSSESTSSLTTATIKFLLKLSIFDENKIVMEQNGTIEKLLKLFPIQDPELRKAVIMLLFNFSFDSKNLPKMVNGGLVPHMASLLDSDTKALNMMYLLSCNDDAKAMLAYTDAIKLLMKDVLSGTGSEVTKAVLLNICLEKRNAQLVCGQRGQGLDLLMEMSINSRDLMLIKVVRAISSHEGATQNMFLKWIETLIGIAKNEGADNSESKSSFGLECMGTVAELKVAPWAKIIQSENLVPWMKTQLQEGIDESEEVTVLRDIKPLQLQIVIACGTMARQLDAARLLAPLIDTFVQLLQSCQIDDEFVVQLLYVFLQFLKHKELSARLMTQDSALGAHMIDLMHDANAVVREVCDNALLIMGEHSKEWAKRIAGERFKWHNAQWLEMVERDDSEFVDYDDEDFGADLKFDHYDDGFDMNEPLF
The experiment in a line: microtubule gliding velocity assay. In kind it is biochemical. As to conditions: read-out: Recombinant C. elegans kinesin-II; Mg-ATP; microtubules; 21°C.

Consider `Nc1ncnc2c1ncn2[C@@H]1O[C@H](COP(=O)(O)OP(=O)(O)OP(=O)(O)O)[C@@H](O)[C@H]1O` [Mg-ATP], for which the Km is 280 ± 50 µM.
